In ChEMBL document CHEMBL5465560, “Selectivity Literature for EUbOPEN Chemogenomic Library” (2024):

What was measured:
[1] = target: Mitogen-activated protein kinase 4 (Homo sapiens) (UniProt P31152); experiment: Selectivity interaction (KinomeScan (DiscoverX)) EUB0001619a MAPK4; conditions: at 1 µM
[2] = target: T1, Mitogen-activated protein kinase kinase kinase 3 (Homo sapiens) (UniProt Q99759); experiment: Selectivity interaction (KinomeScan (DiscoverX)) EUB0000618a MAP3K3; conditions: at 10 µM
T1 sequence (whole entry): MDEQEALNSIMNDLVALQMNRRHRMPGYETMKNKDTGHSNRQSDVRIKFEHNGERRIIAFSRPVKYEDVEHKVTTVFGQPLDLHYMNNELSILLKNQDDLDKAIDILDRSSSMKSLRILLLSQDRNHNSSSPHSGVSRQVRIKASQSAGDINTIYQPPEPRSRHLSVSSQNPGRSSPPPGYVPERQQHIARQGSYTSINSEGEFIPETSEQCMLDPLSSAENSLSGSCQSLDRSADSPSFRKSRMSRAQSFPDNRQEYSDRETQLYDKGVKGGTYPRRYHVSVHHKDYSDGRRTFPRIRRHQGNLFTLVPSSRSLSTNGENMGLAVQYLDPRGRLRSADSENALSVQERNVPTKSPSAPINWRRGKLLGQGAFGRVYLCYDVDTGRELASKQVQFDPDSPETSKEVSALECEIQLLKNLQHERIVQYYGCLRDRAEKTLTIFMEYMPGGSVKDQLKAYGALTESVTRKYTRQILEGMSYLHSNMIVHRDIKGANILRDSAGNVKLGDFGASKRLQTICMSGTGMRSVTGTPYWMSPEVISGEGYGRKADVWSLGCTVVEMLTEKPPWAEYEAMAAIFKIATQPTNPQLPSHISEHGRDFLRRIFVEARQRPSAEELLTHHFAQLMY

[3] = target: T2, Dual specificity mitogen-activated protein kinase kinase 4 (Homo sapiens) (UniProt P45985); experiment: Selectivity interaction (ActivX KiNativ screen (kinase selectivity in THP-1 cell lysates)) EUB0000639a MAP2K4; assay type: subcellular; conditions: lysate, at 0.2 µM
T2 sequence (whole entry): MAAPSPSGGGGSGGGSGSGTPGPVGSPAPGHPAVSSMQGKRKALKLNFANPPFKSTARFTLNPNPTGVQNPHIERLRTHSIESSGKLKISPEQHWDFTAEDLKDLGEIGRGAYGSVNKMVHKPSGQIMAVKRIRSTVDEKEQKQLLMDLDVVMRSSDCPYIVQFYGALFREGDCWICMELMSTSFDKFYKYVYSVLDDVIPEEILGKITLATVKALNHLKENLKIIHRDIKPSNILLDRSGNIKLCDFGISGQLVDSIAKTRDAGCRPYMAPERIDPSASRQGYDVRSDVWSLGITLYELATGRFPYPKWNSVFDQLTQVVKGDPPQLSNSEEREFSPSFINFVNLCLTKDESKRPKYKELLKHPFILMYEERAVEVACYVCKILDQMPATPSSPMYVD

[4] = target: T3, Serine/threonine-protein kinase D2 (Homo sapiens) (UniProt Q9BZL6); experiment: Selectivity interaction (Kinase panel (Invitrogen)) EUB0000639a PRKD2; conditions: at 200 nM
T3 sequence (whole entry): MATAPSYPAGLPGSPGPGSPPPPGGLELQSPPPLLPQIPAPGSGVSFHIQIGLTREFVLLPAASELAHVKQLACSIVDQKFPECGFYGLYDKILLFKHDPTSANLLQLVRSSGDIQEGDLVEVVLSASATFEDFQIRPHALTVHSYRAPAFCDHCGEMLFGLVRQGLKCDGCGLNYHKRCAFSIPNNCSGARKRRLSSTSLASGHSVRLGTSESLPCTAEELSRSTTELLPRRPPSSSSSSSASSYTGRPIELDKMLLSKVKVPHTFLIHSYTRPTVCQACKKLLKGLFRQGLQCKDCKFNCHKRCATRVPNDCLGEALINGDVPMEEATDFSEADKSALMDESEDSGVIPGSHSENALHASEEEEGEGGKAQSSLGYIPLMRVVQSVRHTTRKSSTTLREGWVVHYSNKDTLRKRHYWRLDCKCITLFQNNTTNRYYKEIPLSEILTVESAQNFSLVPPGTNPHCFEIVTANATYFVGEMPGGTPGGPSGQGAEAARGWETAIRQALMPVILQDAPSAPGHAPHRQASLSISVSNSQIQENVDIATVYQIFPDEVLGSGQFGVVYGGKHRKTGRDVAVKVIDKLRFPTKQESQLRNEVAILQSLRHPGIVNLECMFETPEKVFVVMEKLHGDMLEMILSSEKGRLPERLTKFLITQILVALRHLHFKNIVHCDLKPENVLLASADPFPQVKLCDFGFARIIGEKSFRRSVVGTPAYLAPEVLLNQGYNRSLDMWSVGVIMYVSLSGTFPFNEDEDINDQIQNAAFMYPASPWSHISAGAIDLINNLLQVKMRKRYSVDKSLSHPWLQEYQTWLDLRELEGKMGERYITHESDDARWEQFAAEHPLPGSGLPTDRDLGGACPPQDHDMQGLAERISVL

[5] = target: Vascular endothelial growth factor receptor 3 (Homo sapiens, UniProt P35916); experiment: Selectivity interaction (KinomeScan (DiscoverX)) EUB0000655a FLT4; conditions: at 10 µM
[6] = target: T4, Serine/threonine-protein kinase BRSK1 (Homo sapiens) (UniProt Q8TDC3); experiment: Selectivity interaction (Ambit KINOMEscan and KiNATiv profiling in Jurkat cells) EUB0000090b BRSK1; assay type: cell-based; conditions: at 1 µM
T4 sequence (whole entry): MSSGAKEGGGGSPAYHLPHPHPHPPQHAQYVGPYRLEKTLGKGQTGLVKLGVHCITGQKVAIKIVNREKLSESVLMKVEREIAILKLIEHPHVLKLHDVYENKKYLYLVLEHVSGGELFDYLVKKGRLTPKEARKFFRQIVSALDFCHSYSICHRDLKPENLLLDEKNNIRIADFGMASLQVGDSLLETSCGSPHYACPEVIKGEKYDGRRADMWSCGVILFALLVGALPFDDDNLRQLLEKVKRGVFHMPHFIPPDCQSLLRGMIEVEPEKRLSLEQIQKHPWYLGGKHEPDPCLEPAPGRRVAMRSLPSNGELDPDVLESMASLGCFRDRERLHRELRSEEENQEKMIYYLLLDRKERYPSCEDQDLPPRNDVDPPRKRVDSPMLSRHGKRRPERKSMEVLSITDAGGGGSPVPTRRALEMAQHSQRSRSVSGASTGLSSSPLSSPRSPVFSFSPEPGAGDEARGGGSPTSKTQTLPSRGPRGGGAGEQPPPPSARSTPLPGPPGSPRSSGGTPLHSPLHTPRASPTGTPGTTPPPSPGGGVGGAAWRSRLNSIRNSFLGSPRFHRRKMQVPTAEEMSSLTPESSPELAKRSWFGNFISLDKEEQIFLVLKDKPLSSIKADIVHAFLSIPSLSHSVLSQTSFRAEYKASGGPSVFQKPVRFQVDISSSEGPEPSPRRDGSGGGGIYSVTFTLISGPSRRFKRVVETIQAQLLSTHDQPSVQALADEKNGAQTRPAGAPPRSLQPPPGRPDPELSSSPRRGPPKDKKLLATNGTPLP

Chain of Vascular endothelial growth factor receptor 3 (P35916 whole entry): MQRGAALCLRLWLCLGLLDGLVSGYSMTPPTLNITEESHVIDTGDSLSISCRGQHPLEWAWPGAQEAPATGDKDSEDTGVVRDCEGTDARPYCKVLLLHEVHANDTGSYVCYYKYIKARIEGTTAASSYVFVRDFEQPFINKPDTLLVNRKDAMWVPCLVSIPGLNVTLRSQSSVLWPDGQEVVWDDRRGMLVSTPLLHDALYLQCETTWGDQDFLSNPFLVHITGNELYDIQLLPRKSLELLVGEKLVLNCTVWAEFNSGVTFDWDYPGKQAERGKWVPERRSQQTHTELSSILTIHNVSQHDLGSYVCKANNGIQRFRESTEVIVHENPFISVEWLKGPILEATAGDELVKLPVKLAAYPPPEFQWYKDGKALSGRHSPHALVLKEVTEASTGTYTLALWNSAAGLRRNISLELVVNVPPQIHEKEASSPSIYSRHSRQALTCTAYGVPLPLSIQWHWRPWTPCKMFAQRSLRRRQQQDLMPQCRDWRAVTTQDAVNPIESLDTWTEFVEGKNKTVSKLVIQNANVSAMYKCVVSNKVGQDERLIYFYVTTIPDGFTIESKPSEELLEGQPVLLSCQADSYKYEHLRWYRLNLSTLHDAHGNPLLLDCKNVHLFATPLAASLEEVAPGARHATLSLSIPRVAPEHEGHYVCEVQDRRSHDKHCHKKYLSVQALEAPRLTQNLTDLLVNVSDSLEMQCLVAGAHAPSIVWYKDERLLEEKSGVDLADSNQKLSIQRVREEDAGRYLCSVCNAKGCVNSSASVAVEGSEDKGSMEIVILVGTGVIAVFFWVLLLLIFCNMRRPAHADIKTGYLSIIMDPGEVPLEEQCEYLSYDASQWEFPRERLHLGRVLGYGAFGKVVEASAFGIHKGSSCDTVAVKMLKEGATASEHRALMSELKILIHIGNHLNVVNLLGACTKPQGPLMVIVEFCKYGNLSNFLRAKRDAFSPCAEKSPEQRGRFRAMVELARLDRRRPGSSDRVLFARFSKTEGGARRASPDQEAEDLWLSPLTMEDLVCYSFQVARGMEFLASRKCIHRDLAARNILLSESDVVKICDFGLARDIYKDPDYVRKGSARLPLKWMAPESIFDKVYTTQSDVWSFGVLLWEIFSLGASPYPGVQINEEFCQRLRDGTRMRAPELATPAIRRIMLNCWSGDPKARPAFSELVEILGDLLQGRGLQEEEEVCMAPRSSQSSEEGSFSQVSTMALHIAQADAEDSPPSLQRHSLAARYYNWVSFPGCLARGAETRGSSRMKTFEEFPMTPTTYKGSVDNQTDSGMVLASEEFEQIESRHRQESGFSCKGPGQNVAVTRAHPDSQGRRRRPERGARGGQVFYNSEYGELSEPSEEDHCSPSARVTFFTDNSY
Chain of Mitogen-activated protein kinase 4 (Homo sapiens) (P31152 whole entry): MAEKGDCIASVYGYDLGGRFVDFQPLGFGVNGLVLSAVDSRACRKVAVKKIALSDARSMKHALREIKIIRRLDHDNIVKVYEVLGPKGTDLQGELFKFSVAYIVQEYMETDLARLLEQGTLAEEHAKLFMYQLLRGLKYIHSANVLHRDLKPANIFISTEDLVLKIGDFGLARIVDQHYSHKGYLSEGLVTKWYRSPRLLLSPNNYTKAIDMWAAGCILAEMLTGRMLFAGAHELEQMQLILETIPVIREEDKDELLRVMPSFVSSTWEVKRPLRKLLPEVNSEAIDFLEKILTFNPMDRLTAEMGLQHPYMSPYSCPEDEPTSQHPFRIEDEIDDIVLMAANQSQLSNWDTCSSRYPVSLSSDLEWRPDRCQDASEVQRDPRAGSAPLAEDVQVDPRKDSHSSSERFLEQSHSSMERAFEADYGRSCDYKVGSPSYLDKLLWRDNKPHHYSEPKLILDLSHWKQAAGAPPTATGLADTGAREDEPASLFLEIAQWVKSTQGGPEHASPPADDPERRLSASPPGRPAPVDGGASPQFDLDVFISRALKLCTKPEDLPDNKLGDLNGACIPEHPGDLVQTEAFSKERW

N#Cc1cccc(-c2c[nH]c3ncnc(N4CCOCC4)c23)c1
% of control [1]: 95%

O[C@H]1CC[C@H](Nc2ncc3nc(Nc4c(F)cc(F)cc4F)n([C@H]4CCOC4)c3n2)CC1
% of control [2]: 83%

CC[C@@H]1[C@H](F)C(=O)N[C@@H]1COc1nccc2cc(C(N)=O)c(OC)cc12 [ZIMLOVISERTIB]
% of inhibition [3]: 15.8%
% of inhibition [4]: 5.6%

CN(C)CCOc1ccc(-c2nc(-c3ccncc3)c(-c3ccc4c(c3)CC/C4=N\O)[nH]2)cc1
% of control [5]: 100%

CN(C)C/C=C/C(=O)Nc1ccc(C(=O)N2CCCC(Nc3ncc(Cl)c(-c4c[nH]c5ccccc45)n3)C2)cc1 (stereo unspecified)
% of control [6]: 84%
